In patent publication US20110112135A1, “Imidazo [1,2-A] Pyridine Compounds” (priority 2007, published 2011) one finds IC50, EC50 and Emax data, which are given here for 15 compounds.

pEC50, pIC50: −log10 of the molar value.

One experiment addresses T1, human LXRβ (Homo sapiens, UniProt P55055).
T1 construct: biotin (biotinylated); made in house; host or cells: E. coli (crude extract)
T1 sequence (P55055 1-460): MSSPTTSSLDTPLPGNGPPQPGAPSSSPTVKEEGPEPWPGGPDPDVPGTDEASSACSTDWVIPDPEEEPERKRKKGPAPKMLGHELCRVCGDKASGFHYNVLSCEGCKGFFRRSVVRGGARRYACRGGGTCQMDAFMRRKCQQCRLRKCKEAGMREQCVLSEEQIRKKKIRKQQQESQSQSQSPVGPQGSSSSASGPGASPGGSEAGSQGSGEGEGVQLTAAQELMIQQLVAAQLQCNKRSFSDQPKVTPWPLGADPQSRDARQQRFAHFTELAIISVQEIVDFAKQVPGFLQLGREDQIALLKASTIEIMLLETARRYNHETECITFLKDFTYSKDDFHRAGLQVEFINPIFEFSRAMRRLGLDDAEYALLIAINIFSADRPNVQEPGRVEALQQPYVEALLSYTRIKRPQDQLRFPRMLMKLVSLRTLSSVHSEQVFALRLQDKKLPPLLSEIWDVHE
Description: Ligand-binding test procedure for human LXRβ (3H T0901317 tracer, flash plates). Particulars: biotinylated hLXRβ from E. coli extract; tracer 3H T0901317. In outline:
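Biotinylated hLXRβ from E. coli extract was captured on streptavidin flash plates (Bmax ~4000 cpm) at 4 °C overnight. Test ligand dilutions were mixed with 5 nM [3H]T0901317 tracer solution and incubated on the plates overnight at 4 °C; bound radioactivity was counted after washing.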

The test system of another experiment is ABCA1 gene. Nature of the experiment: Quantitative analysis of ABCA1 gene regulation in THP-1 cells (real-time PCR). In kind it is cell-based, human. The settings on record: Gene regulation by LXR (Human), differentiated THP-1 cells, 18 hrs; for pEC50: ABCA1 mRNA, read-out: EC50 ABCA1; for Emax: LXR agonist reference at 1.0 uM as positive control, read-out: Agonism ABCA1. The procedure: III. Quantitative Analysis of ABCA1 Gene Regulation in THP-1 Cells. The compounds of formula (I) effect on the regulation of the ABCA1 gene was evaluated using the following procedure. Materials and Methods Cell culture: The THP-1 monocytic cell line (ATCC #TIB-202) was obtained from American Type Culture Collection (Manassas, Va.) and cultured in RPMI 1640 medium (Gibco, Carlsbad, Calif.) containing 10% FBS, 2 mM L-glutamine, and 55 uM beta-Mercaptoethanol (BME). […] Louis, Mo.) for three days to induce differentiation into adherent macrophages. Differentiated THP-1 cells were treated with test compounds or ligands dissolved in DMSO (Sigma, D-8779) in culture medium lacking phorbal ester. […] Dose response effects were measured in duplicate, in the range of 0.001 to 30 micromolar concentrations and treated cells were incubated for an additional 18 hrs prior to RNA isolation. Unstimulated cells treated with vehicle were included as negative controls on each plate. […] L., J. Med. Chem. (2000), 45:1963-1966.). Results of antagonist analysis are expressed as % antagonism and IC50 (in μM). RNA isolation and quantitation: Total cellular RNA was isolated from treated cells cultured in 96-well plates using PrepStation 6100 (Applied Biosystems, Foster City, Calif.), according to the manufacturer's recommendations. RNA was resuspended in ribonuclease-free water and stored at -70° C. prior to analysis. RNA concentrations were quantitated with RiboGreen test procedure, #R-11490 (Molecular Probes, Eugene, Oreg.). Gene expression analysis: Gene-specific mRNA quantitation was performed by real-time PCR with the Perkin Elmer Corp. chemistry on an ABI Prism 7700 Sequence detection system (Applied Biosystems, Foster City, Calif.) according to the manufacturer's instructions. Samples (50-100 ng) of total RNA were assayed in duplicate or triplicate in 50 ul reactions using one-step RT-PCR and the standard curve method to estimate specific mRNA concentrations. Sequences of gene-specific primer and probe sets were designed with Primer Express Software (Applied Biosystems, Foster City, Calif.). […] Relative levels of ABCA1 mRNA are normalized using GAPDH mRNA or 18S rRNA probe/primer sets purchased commercially (Applied Biosystems, Foster City, Calif.). Statistics: Mean, standard deviation and statistical significance of duplicate evaluations of RNA samples were assessed using ANOVA, one-way analysis of variance using SAS analysis. Reagents: -GAPDH Probe and Primers-Taqman GAPDH Control Reagents 402869 or 4310884E 18S Ribosomal RNA-Taqman 18S Control Reagents 4308329 […] Qiagen Quantitect probe RT-PCR 204443.
Background: Quantitative PCR measures a nucleic acid by following its amplification.

Another experiment concerns the target T2, human LXRα (Homo sapiens, UniProt Q13133).
T2 construct: biotin (biotinylated); made in house; host or cells: E. coli (crude extract)
T2 sequence (Q13133 1-447): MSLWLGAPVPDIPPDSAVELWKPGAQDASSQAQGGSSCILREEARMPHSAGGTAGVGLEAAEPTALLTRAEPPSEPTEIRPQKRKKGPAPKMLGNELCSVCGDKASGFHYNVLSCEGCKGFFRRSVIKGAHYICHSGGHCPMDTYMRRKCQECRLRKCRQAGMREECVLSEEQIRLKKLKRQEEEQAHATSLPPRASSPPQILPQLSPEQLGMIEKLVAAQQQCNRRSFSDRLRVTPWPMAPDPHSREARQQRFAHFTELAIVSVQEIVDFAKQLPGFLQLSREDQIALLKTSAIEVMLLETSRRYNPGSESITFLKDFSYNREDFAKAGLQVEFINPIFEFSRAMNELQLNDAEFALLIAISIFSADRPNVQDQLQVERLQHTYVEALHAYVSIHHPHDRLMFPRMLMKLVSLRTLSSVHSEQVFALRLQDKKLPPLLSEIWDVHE
Description: Ligand-binding test procedure for human LXRα (3H T0901317 tracer, flash plates). The settings on record: biotinylated hLXRα from E. coli extract; tracer 3H T0901317. In outline: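 Biotinylated hLXRα from E. coli extract (50 mM Tris) captured on streptavidin flash plates overnight at 4 °C. Compound dilution series mixed with 5 nM [3H]T0901317 (concentration before mixing), incubated overnight at 4 °C; wells aspirated, washed and remaining radioactivity counted.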

A word on the pIC50: it is the negative decadic logarithm of the IC50, by convention in mol/L. What is called pEC50 is the negative decadic logarithm of the EC50, by convention in mol/L. In turn, `CCCCOCc1nc2c(C(F)(F)F)cccn2c1-c1ccc(Oc2cccc(S(C)(=O)=O)c2)cc1` [Example 128, 2-(butoxymethyl)-3-{4-[3-(methylsulfonyl)phenoxy]phenyl}-8-(trifluoromethyl)imidazo[1,2-a]pyridine] showed a pIC50 on human LXRβ of 7.55. In the experiment with ABCA1 gene, the pEC50 is 7.40 and the Emax was determined as 76%. Besides, at human LXRα, the pIC50 is 6.37.
`CCc1nc2c(Cl)cccn2c1-c1cccc(Oc2cccc(S(C)(=O)=O)c2)c1` [Example 63, 8-chloro-2-ethyl-3-{3-[3-(methylsulfonyl)phenoxy]phenyl}imidazo[1,2-a]pyridine] had a pIC50 at human LXRβ of 7.76. Moreover, in the experiment on ABCA1 gene, the pEC50 was 6.52 and the Emax turned out to be 96%. The compound also had a pIC50 on human LXRα of 6.19.
As to `CS(=O)(=O)c1cccc(Oc2cccc(-c3c(Cn4ccnc4)nc4c(C(F)(F)F)cccn34)c2)c1` [Example 129, 2-(1H-imidazol-1-ylmethyl)-3-{3-[3-(methylsulfonyl)phenoxy]phenyl}-8-(trifluoromethyl)imidazo[1,2-a]pyridine], the pIC50 on human LXRβ was 7.52; on human LXRα, 6.43. Moreover, the pEC50 with ABCA1 gene is 6.87. For the same compound, the Emax in the experiment on ABCA1 gene amounted to 103%.
Take `CC(C)c1nc2c(C#N)cccn2c1-c1cc(Oc2cccc(S(C)(=O)=O)c2)ccc1Cl` [Example 82, 3-{2-chloro-5-[3-(methylsulfonyl)phenoxy]phenyl}-2-isopropylimidazo[1,2-a]pyridine-8-carbonitrile]: the pIC50 at human LXRβ was 7.94. In the experiment on ABCA1 gene, the pEC50 is 6.54 and the Emax amounted to 70%. Further, the pIC50 at human LXRα is 6.51.
At human LXRβ, `CCS(=O)(=O)c1cccc(Oc2cccc(-c3c(C(C)C)nc4c(C#N)cccn34)c2)c1` [Example 73, 3-{3-[3-(ethylsulfonyl)phenoxy]phenyl}-2-isopropylimidazo[1,2-a]pyridine-8-carbonitrile] showed a pIC50 of 7.44. For the same compound, in the experiment with ABCA1 gene, the pEC50 is 5.69 and the Emax amounted to 82%. The compound also gave a pIC50 on human LXRα of 5.73.
Regarding `CCc1nc2c(C(F)(F)F)cccn2c1-c1cccc(Oc2cc(F)cc(S(C)(=O)=O)c2)c1` [Example 24, 2-ethyl-3-(3-(3-fluoro-5-(methylsulfonyl)phenoxy)phenyl)-8-(trifluoromethyl)imidazo[1,2-a]pyridine], the pIC50 is 7.29 at human LXRβ and 6.20 at human LXRα. Moreover, the pEC50 with ABCA1 gene was 6.83. Moreover, in the experiment on ABCA1 gene, the Emax turned out to be 76%.
Regarding `CCS(=O)(=O)c1cccc(Oc2ccc(-c3c(C(C)C)nc4c(C(F)(F)F)cccn34)cc2)c1` [Example 120, 3-{4-[3-(ethylsulfonyl)phenoxy]phenyl}-2-(1-methylethyl)-8-(trifluoromethyl)imidazo[1,2-a]pyridine], the values for the pIC50 at human LXRβ and on human LXRα were 6.93 and less than 6.00, respectively. In the experiment on ABCA1 gene, the pEC50 is 6.23. In the experiment with ABCA1 gene, the Emax was 53%.
At human LXRβ, `CCc1nc2c(Cl)cccn2c1-c1cccc(Oc2cccc(S(=O)(=O)NC)c2)c1` [Example 48, 3-[3-(8-chloro-2-ethylimidazo[1,2-a]pyridin-3-yl)phenoxy]-N-methylbenzenesulfonamide] showed a pIC50 of 7.64. In addition, in the experiment on ABCA1 gene, the pEC50 was 6.03 and the Emax was 94%. In addition, the pIC50 at human LXRα was 6.39.
In the case of `CCCS(=O)(=O)c1cccc(Oc2cccc(-c3c(CC)nc4c(C(F)(F)F)cccn34)c2)c1` [Example 19, 2-ethyl-3-(3-(3-(propylsulfonyl)phenoxy)phenyl)-8-(trifluoromethyl)imidazo[1,2-a]pyridine], the pIC50 at human LXRβ was 7.03. Further, in the experiment on ABCA1 gene, the pEC50 was 6.39 and the Emax was 72%. Also, on human LXRα, the pIC50 is 6.01.
On human LXRβ, `CCS(=O)(=O)c1cccc(Oc2cccc(-c3c(C(C)C)nc4c(Cl)cccn34)c2)c1` [Example 67, 8-chloro-3-{3-[3-(ethylsulfonyl)phenoxy]phenyl}-2-isopropylimidazo[1,2-a]pyridine] gave a pIC50 of 8.02. Further, in the experiment with ABCA1 gene, the pEC50 is 5.79 and the Emax turned out to be 81%. The compound further gave a negative-log IC50 (pIC50) on human LXRα of 6.39.
Turning to `CCc1nc2c(Cl)cccn2c1-c1cccc(Oc2cccc(S(=O)(=O)C(C)C)c2)c1` [Example 65, 8-chloro-2-ethyl-3-{3-[3-(isopropylsulfonyl)phenoxy]phenyl}imidazo[1,2-a]pyridine], the pIC50 on human LXRβ is 7.77. Further, in the experiment on ABCA1 gene, the pEC50 was 5.89 and the Emax amounted to 113%. The compound also showed a pIC50 at human LXRα of 6.50.
The matching figures for `CCc1nc2c(C#N)cccn2c1-c1cccc(Oc2cccc(S(=O)(=O)C(C)C)c2)c1` [Example 71, 2-ethyl-3-{3-[3-(isopropylsulfonyl)phenoxy]phenyl}imidazo[1,2-a]pyridine-8-carbonitrile]: 7.43, 5.71, 96% and 5.61.
For `CCc1nc2c(C#N)cccn2c1-c1cccc(Oc2cccc(S(=O)(=O)NC)c2)c1` [Example 51, 3-[3-(8-cyano-2-ethylimidazo[1,2-a]pyridin-3-yl)phenoxy]-N-methylbenzenesulfonamide], in that order: 7.10, 5.83, 93% and 5.72.
The matching figures for `CCc1nc2c(C#N)cccn2c1-c1cccc(Oc2cccc(S(=O)(=O)N(C)Cc3ccc(OC)cc3)c2)c1` [Example 46, 3-[3-(8-cyano-2-ethylimidazo[1,2-a]pyridin-3-yl)phenoxy]-N-(4-methoxybenzyl)-N-methylbenzenesulfonamide]: 7.81, 6.44, 92% and 7.19.
On to `CC(C)c1nc2c(C#N)cccn2c1-c1cc(Oc2cccc(S(=O)(=O)C(C)C)c2)ccc1Cl` [Example 84, 3-{2-chloro-5-[3-(isopropylsulfonyl)phenoxy]phenyl}-2-isopropylimidazo[1,2-a]pyridine-8-carbonitrile], for which the pIC50 at human LXRβ was 8.07; at human LXRα, 6.56. Besides, the pEC50 in the experiment on ABCA1 gene is 6.43. For the same compound, the Emax in the experiment on ABCA1 gene was found to be 70%.
